Calls of active or inactive are those of the source. No cut-off for these calls is given here.
What was measured:
[1] = Inhibition of HSV type-2 DNA polymerase after 30 mins by liquid scintillation counting analysis in presence of dATP, dCTP, dGTP and [3H]-TTP; parameters: species or system Human alphaherpesvirus 2
Human alphaherpesvirus 2 [2] = assay: Antiviral activity against Human herpesvirus 2 infected in CF mouse assessed as suppression of virus-induced dermatitis administered topically as 2% aqueous solution twice daily for 6 days measured after day 17; assay type: functional, organism-based
Human alphaherpesvirus 2 [3] = assay: Antiviral activity against Human herpesvirus 2 infected in CF mouse assessed as suppression of virus-induced dermatitis at 800 mg/kg/day, po administered for 6 days measured after day 17; assay type: functional, organism-based
Human alphaherpesvirus 2 [4] = assay: Antiviral activity against Human herpesvirus 2 infected in CF mouse assessed as suppression of virus-induced dermatitis at 100 to 1000 mg/kg/day, po administered for 6 days measured after day 17; assay type: functional, organism-based

| SMILES | I50 [1] | Activity (Human alphaherpesvirus 2 [2]) | Activity (Human alphaherpesvirus 2 [3]) | Activity (Human alphaherpesvirus 2 [4]) |
| --- | --- | --- | --- | --- |
| O=C(CP(=O)(O)O)OC1CCCCC1 | 49 µg/mL | – | – | – |
| O=C(CP(=O)(O)O)OCc1ccccc1 | 40 µg/mL | – | – | – |
| O=C(O)CP(=O)(O)c1ccccc1 | 200 µg/mL | inactive | inactive | – |
| CCCCCCCCOC(=O)CP(=O)(O)O | 0.26 µg/mL | – | – | – |
| CCCOC(=O)CP(=O)(O)O | 0.16 µg/mL | Active | – | Active |
| CC(C)(C)OC(=O)CP(=O)(O)O | 3.9 µg/mL | – | – | – |
| COP(=O)(O)CC(=O)O | 19.9 µg/mL | – | – | – |
| COc1ccc(P(=O)(O)CC(=O)O)cc1 | 150 µg/mL | inactive | inactive | – |
| CCCOP(=O)(O)CC(=O)O | 200 µg/mL | – | – | – |
| O=C(O)CP(=O)([O-])[O-].[Na+].[Na+] [DISODIUM CARBOXYMETHYLPHOSPHONATE] | 0.22 µg/mL | – | – | – |
| CCCCCCOP(=O)(O)CC(=O)O | – | Active | Active | – |
| CP(=O)(O)CC(=O)O | 145 µg/mL | inactive | – | – |

Reference: ChEMBL document CHEMBL3244259, “Synthesis and anti-herpes simplex activity of analogues of phosphonoacetic acid” (J Med Chem, 1977)
